This is an account of results in patent publication US8796304B2, “Tricyclic imidazole compounds as PDE10 inhibitors” (H. Lundbeck A/S, priority 2010, dated 2014).

For data set [1], the target named is PDE10A enzyme (Homo sapiens (Human), UniProt Q9Y233). The data set can be described thus: PDE10A inhibition assay (3H-cAMP, SPA beads). The class given is biochemical. The following applies: 10 nM 3H-cAMP, 1 hour incubation; read-out: PDE10 IC50. How it is done: PDE10A can be expressed as full-length proteins or as truncated proteins, as long as they express the catalytic domain, PDE10A can be prepared in different cell types, for example insect cells or E. coli. […] Expression in coil is performed according to standard protocols. Briefly, the expression plasmids are transformed into the BL21(DE3) E. coli strain, and 50 mL cultures inoculated with the cells allowed to grow to an OD600 of 0.4-0.6 before protein expression is induced with 0.5 mM IPTG. Following induction, the cells are incubated overnight at room temperature, after which the cells are collected by centrifugation. Cells expressing PDE10A are resuspended in 12 mL (50 mM TRIS-HCl-pH8.0, 1 mM MgCl2 and protease inhibitors). The cells are lysed by sonication, and after all cells are lysed, TritonX100 is added according to Novagen protocols.
Reactions are initiated by addition of the cyclic nucleotide substrate, and reactions are allowed to proceed for one hr at room temperature before being terminated through mixing with 15 uL […] yttrium silicate SPA beads (Amersham).
Following a 1 hour incubation the reactions were terminated by addition of 15 uL 8 mg/mL yttrium silicate SPA beads (Amersham). […] were calculated by non linear regression using XLfit (IDBS).

Data set [2] concerns PCP induced hyperactivity in mice. The data set is described as follows: Phencyclidine (PCP) induced hyperactivity. The following applies: Mus musculus. The data set is classed as in vivo, mice (NMRI). The method, then:
Male mice (NMRI, Charles River) weighing 20-25 g are used. Eight mice are used in each group receiving the test compound (5 mg/kg) plus PCP (2.3 mg/kg) including the parallel control groups receiving the vehicle of the test compound plus PCP or vehicle injections only. The injection volume is 10 ml/kg. The experiment is made in normal light conditions in an undisturbed room. The test substance is injected per oss 60 min before injection of PCP, which is administered subcutaneous.
Immediately after injection of PCP the mice are placed individually in special designed test cage (20 cm×32 cm). The activity is measured by 5×8 infrared light sources and photocells spaced by 4 cm. The light beams cross the cage 1.8 cm above the bottom of the cage. […]
Motility is recorded in 5 min intervals for a period of 1 hour. The drug effect is calculated on the total counts during the 1 hour behavioral test period in the following manner:
The mean motility induced by vehicle treatment in the absence of PCP is used as baseline. The 100 percent effect of PCP is accordingly calculated to be total motility counts minus baseline. The response in groups receiving test compound is thus determined by the total motility counts minus baseline, expressed in percent of the similar result recorded in the parallel PCP control group. […]

The test system of data set [3] is catalepsy in rats. The following applies: cited from earlier work.
The test system of data set [4] is hyperactivity in rats induced by PCP. The following applies: cited from earlier work.
Data set [5] relates to amphetamine induced hyperactivity. The following applies: rats; cited from earlier work.

PDE10A enzyme, sequence (Q9Y233 716-1055): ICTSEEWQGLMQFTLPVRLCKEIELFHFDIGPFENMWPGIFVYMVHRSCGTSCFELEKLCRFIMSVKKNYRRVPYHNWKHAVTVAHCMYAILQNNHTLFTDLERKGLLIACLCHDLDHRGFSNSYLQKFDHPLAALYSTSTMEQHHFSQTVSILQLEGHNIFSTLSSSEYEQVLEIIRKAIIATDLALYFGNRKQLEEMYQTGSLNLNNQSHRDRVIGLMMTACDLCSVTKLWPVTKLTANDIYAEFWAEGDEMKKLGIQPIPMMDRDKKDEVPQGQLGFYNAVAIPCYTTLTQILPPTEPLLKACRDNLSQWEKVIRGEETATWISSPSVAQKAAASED

Consider `Cc1ncc(C)n2nc(C=Cc3cn4c(n3)-c3ccccc3C4)nc12` (racemic) [2-[-2-(5,8-Dimethyl-[1,2,4]triazolo[1,5-a]pyrazin-2-yl)-vinyl]-5H-imidazo[2,1-a]isoindole], for which the IC50 in data set [1] is 4.4 nM. In the case of `[2H]C([2H])([2H])c1ncc(C([2H])([2H])[2H])n2nc(CCc3cn4c(n3)-c3ccccc3C4([2H])[2H])nc12` [2-[2-(5,8-Bis(trideuteromethyl-[1,2,4]triazolo[1,5-a]pyrazin-2-yl)-ethyl]-5,5-dideutero-5H-imidazo[2,1-a]isoindole], in data set [1], the IC50 was found to be 0.4 nM. Same read-out and setting: next, `Cc1ncc(C)n2nc(CCc3cn4c(n3)-c3ccccc3CC4)nc12` [2-[2-(5,8-Dimethyl-[1,2,4]triazolo[1,5-a]pyrazin-2-yl)-ethyl]-5,6-dihydro-imidazo[2,1-a]isoquinoline]: 0.81 nM; `Cc1ncc(C)n2nc(CCc3cn4c(n3)-c3ncccc3C4)nc12` [2-[2-(5,8-Dimethyl-[1,2,4]triazolo[1,5-a]pyrazin-2-yl)-ethyl]-5H-imidazo[1′,2′:1,2]pyrrolo[3,4-b]pyridine]: 46 nM; `Cc1ncc(C)n2nc(CCc3cn4c(n3)-c3cccnc3C4)nc12` [2-[2-(5,8-Dimethyl-[1,2,4]triazolo[1,5-a]pyrazin-2-yl)-ethyl]-5H-imidazo[1′,2′:1,5]pyrrolo[3,4-b]pyridine]: 3.8 nM.

Regarding `Cc1ncc(C)n2nc(CCc3cn4c(n3)-c3cccc(F)c3C4)nc12` [2-[2-(5,8-Dimethyl-[1,2,4]triazolo[1,5-a]pyrazin-2-yl)-ethyl]-6-fluoro-5H-imidazo[2,1-a]isoindole], the IC50 in data set [1] is 1.2 nM. Take `COc1cccc2c1Cn1cc(CCc3nc4c(C)ncc(C)n4n3)nc1-2` [2-[2-(5,8-Dimethyl-[1,2,4]triazolo[1,5-a]pyrazin-2-yl)-ethyl]-6-methoxy-5H-imidazo[2,1-a]isoindole]: the 50% inhibitory concentration (IC50) in data set [1] stood at 0.44 nM. On the same count and under the same terms, in the case of `COc1ccc2c(c1)Cn1cc(CCc3nc4c(C)ncc(C)n4n3)nc1-2` [2-[2-(5,8-Dimethyl-[1,2,4]triazolo[1,5-a]pyrazin-2-yl)-ethyl]-7-methoxy-5H-imidazo[2,1-a]isoindole] it was 0.29 nM; in that of `COc1ccc2c(c1)-c1nc(CCc3nc4c(C)ncc(C)n4n3)cn1C2` [2-[2-(5,8-Dimethyl-[1,2,4]triazolo[1,5-a]pyrazin-2-yl)-ethyl]-8-methoxy-5H-imidazo[2,1-a]isoindole], 6.9 nM.

In the case of `Cc1ncc(C)n2nc(CCc3cn4c(n3)-c3c(F)cccc3C4)nc12` [2-[2-(5,8-Dimethyl-[1,2,4]triazolo[1,5-a]pyrazin-2-yl)-ethyl]-9-fluoro-5H-imidazo[2,1-a]isoindole], the IC50 in data set [1] was determined as 0.79 nM. On to `COc1cccc2c1-c1nc(CCc3nc4c(C)ncc(C)n4n3)cn1C2` [2-[2-(5,8-Dimethyl-[1,2,4]triazolo[1,5-a]pyrazin-2-yl)-ethyl]-9-methoxy-5H-imidazo[2,1-a]isoindole], for which, in data set [1], the 50% inhibitory concentration (IC50) amounted to 0.44 nM. Same read-out and setting: in the case of `Cc1ccc(C)n2nc(CCc3cn4c(n3)-c3ccccc3C4)nc12` [2-[2-(5,8-Dimethyl-[1,2,4]triazolo[1,5-a]pyridin-2-yl)-ethyl]-5H-imidazo[2,1-a]isoindole] it was 0.69 nM; in that of `Cc1cccc2nc(CCc3cn4c(n3)-c3ccccc3C4)nn12` [2-[2-(5-Methyl-[1,2,4]triazolo[1,5-a]pyridin-2-yl)-ethyl]-5H-imidazo[2,1-a]isoindole], 6.1 nM; in that of `Cc1cc(C)n2nc(SCc3cn4c(n3)-c3ccccc3C4)nc2n1` [2-[(5,7-dimethyl-[1,2,4]triazolo[1,5-a]pyrimidin-2-yl)sulfanylmethyl]-5H-imidazo[2,1-a]isoindole], 260 nM. Still for that read-out and setting: in the case of `Cc1c[n+]([O-])c(C)c2nc(CCc3cn4c(n3)-c3ccccc3C4)nn12` [2-[-2-(5,8-Dimethyl-7-oxy-[1,2,4]triazolo[1,5-a]pyrazin-2-yl)-ethyl]-5H-imidazo[2,1-a]isoindole] it was 2.4 nM. Turning to `Cc1ncc(C)n2nc(CCc3cn4c(n3)-c3ccccc3C4)nc12` [2-[-2-(5,8-Dimethyl-[1,2,4]triazolo[1,5-a]pyrazin-2-yl)-ethyl]-5H-imidazo[2,1-a]isoindole], the IC50 in data set [1] turned out to be 0.4 nM. This molecule yielded an inhibition at 5 mg/kg in data set [2] (at 5 mg/kg per os, PCP 2.3 mg/kg s.c.) of 100%. Further, in data set [2] (per os 60 min before PCP 2.3 mg/kg s.c., read-out: ED50, inhibition of PCP induced hyperactivity), the ED50 was 0.2 mg/kg. In the case of `Cc1ncc(C)n2nc(CCc3cn4c(n3)-c3ccc(F)cc3C4)nc12` [2-[-2-(5,8-Dimethyl-[1,2,4]triazolo[1,5-a]pyrazin-2-yl)-ethyl]-7-fluoro-5H-imidazo[2,1-a]isoindole], in data set [1], the concentration for half-maximal inhibition (IC50) is 0.18 nM. Still for that read-out and setting: next, `Cc1ncc(C)n2nc(CCc3cn4c(n3)-c3cc(F)ccc3C4)nc12` [2-[-2-(5,8-Dimethyl-[1,2,4]triazolo[1,5-a]pyrazin-2-yl)-ethyl]-8-fluoro-5H-imidazo[2,1-a]isoindole]: 3.1 nM; `Cc1ncc(C)n2nc(CCc3cn4c(n3)-c3ccccc3C4C(C)(C)O)nc12` (centres unmarked) [2-{2-[2-(5,8-Dimethyl-[1,2,4]triazolo[1,5-a]pyrazin-2-yl)-ethyl]-5H-imidazo[2,1-a]isoindol-5-yl}-propan-2-ol]: 21 nM. Regarding `COc1ccc(Cc2nccc3cc(OC)c(OC)cc23)cc1OC` [Papaverine, papaverine], the “Catalepsy on its own” value in data set [3] (alone) is on record as “did not cause catalepsy on its own”. Besides, the “Effect on the cataleptic effect of the D2 receptor antagonist haloperidol” value in data set [3] (together with haloperidol) is “potentiated the cataleptic effect”. In addition, the “Hyperactivity induced by PCP” value in data set [4] is reported as “reduced hyperactivity”. For the same molecule, in data set [5], the “Reduction of amphetamine induced hyperactivity” value is “insignificant”.

For the molecule `Cc1cnc(CO)c2nc(CCc3cn4c(n3)-c3ccccc3C4)nn12` [{2-[2-(5H-Imidazo[2,1-a]isoindol-2-yl)-ethyl]-5-methyl-[1,2,4]triazolo[1,5-a]pyrazin-8-yl}-methanol], the IC50 in data set [1] stood at 6.9 nM.

The IC50 is the concentration needed to halve the response being measured. As a reminder, the inhibition is the relative decrease from the control value, in per cent. Usually ED50 stands for the dose that gives a 50% effect, or the effect in half of the subjects.
